Assay results taken from patent publication US20040043959A1, “Combination therapies for treating methylthioadenosine phosphorylase deficient cells” (priority 2002, published 2004).

Target: T1, Human MTAP (Homo sapiens, UniProt Q13126)
T1 construct: six-histidine tag (His6) (N); made in house; host or cells: E. coli BL21 DE3
T1 sequence (Q13126 1-283): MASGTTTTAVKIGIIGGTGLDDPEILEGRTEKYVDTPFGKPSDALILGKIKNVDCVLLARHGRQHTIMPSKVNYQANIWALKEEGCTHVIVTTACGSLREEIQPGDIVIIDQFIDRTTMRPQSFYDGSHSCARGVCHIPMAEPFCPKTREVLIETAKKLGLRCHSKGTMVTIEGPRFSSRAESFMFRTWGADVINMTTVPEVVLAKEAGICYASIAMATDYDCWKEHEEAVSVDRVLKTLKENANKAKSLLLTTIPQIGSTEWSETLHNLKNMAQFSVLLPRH
Assay: MTAP substrate assay, coupled spectrophotometric (adenine, xanthine oxidase)
Type: biochemical
Settings: 2 nM MTAP; for activity at 50 µM: 10 min, compound 50 uM, relative to MTA at 50 uM, read-out: MT-A—50: initial velocity as a percentage of the initial velocity with MTA as substrate; for MT-A—10: initial velocity as a percentage of the initial velocity with MTA as substrate: compound 10 uM, relative to MTA at 10 uM
Method: An enzymatic assay to determine the activity of MTAP against a given substrate was performed. Human MTAP containing an N-terminal six-histidine tag was expressed in E. coli BL21 DE3 cells. The protein was purified to homogeneity by Ni2+ affinity chromatography. Enzymatic activity was measured using a coupled spectrophotometric assay designed to monitor the reaction product adenine (Savarese, T. M., Crabtree, G. W., and Parks, R. E. Jr., (1980) Biochem. Pharmacol. 30, 189-199). Various concentrations of the indicated 5′-deoxymethylthio adenosine (MTA) or substrate were incubated in assay buffer (40 mM potassium phosphate buffer, 1 mM, and DTT 0.8 units/ml xanthine oxidase coupling enzyme) for 5 minutes at 37° C. The reaction was initiated by the addition of MTAP. The exact concentration of enzyme used varied for each substrate tested and ranged from 2 nM to 500 nM. Activity as a function of enzyme concentration was determined for each substrate tested to ensure that the appropriate enzyme concentration was used. Activity was detected by continuous monitoring of absorbance at 305 nm for 10 minutes (ΔE=15,500 M^−1).
Library compounds (10 and 50 uM) were tested using the assay described above with 2 nM MTAP enzyme. The resultant initial velocities are reported as a percentage of the initial velocity observed when MTA is the substrate. MTA controls, 10 and 50 uM concentrations, were run on each plate alongside the library compounds.

| Compound | activity at 50 µM | MT-A—10: initial velocity as a percentage of the initial velocity with MTA as substrate |
| --- | --- | --- |
| Cn1nnnc1SC[C@H]1O[C@@H](n2cnc3c(N)ncnc32)[C@H](O)[C@@H]1O [2(G)(6), (2R, 3R, 4S, 5S)-2-(6-amino-9H-purin-9-yl)-5-{[(1-methyl-1H-tetrazol-5-yl)thio]methyl}tetra-hydrofuran-3,4-diol] | 47% | 46% |
| Cc1cnc(SC[C@H]2O[C@@H](n3cnc4c(N)ncnc43)[C@H](O)[C@@H]2O)nc1O [2(G)(155), (2R, 3R, 4S, 5S)-2-(6-amino-9H-purin-9-yl)-5-{[(4-hydroxy-5-methyl-pyrimidin-2-yl)thio]-methyl}tetrahydrofuran-3,4-diol] | 39% | 22.5% |
| COC(=O)c1cnc(SC[C@H]2O[C@@H](n3cnc4c(N)ncnc43)[C@H](O)[C@@H]2O)n1C [2(G)(164), Methyl 2-({[(2S, 3S, 4R, 5R)-5-(6-amino-9H-purin-9-yl)-3,4-dihydroxy-tetrahydrofuran-2-yl]methyl}thio)-1-methyl-1H-imidazole-5-carboxylate] | 29% | 13.5% |
| CN(C)Cc1nnc(SC[C@H]2O[C@@H](n3cnc4c(N)ncnc43)[C@H](O)[C@@H]2O)n1C [2(G)(66), (2R, 3R, 4S, 5S)-2-(6-amino-9H-purin-9-yl)-5-[({5-[(dimethylamino)-methyl]-4-methyl-4H-1,2,4-triazol-3-yl}thio)methyl]tetrahydro-furan-3,4-diol] | 6% | 6% |
| COc1cccc(-c2nnc(SC[C@H]3O[C@@H](n4cnc5c(N)ncnc54)[C@H](O)[C@@H]3O)n2C)c1 [2(G)(111), (2R, 3R, 4S, 5S)-2-(6-amino-9H-purin-9-yl)-5-({[5-(3-methoxyphenyl)-4-methyl-4H-1,2,4-triazol-3-yl]thio}-methyl)tetrahydrofuran-3,4-diol] | 4% | 8% |
| CCOC(=O)c1c[nH]c(SC[C@H]2O[C@@H](n3cnc4c(N)ncnc43)[C@H](O)[C@@H]2O)n1 [2(G)(132), Ethyl 2-({[(2S, 3S, 4R, 5R)-5-(6-amino-9H-purin-9-yl)-3,4-dihydroxytetra-hydrofuran-2-yl]methyl}thio)-1H-imidazole-4-carboxylate] | 1.5% | 0% |

The remaining lines, values ahead:

| activity at 50 µM | MT-A—10: initial velocity as a percentage of the initial velocity with MTA as substrate | Compound |
| --- | --- | --- |
| 73% | 77% | CCC(C)CSC[C@H]1O[C@@H](n2cnc3c(N)ncnc32)[C@H](O)[C@@H]1O (stereo partly drawn) [2(G)(71), (2R, 3R, 4S, 5S)-2-(6-amino-9H-purin-9-yl)-5-{[(2-methylbutyl)-thio]methyl}tetrahydro-furan-3,4-diol] |
| 41.5% | 46% | CCCCCCCCCCSC[C@H]1O[C@@H](n2cnc3c(N)ncnc32)[C@H](O)[C@@H]1O [2(G)(129), (2R, 3R, 4S, 5S)-2-(6-amino-9H-purin-9-yl)-5-[(decylthio)methyl]tetra-hydrofuran-3,4-diol] |
| 39% | 32% | Nc1ncnc2c1ncn2[C@@H]1O[C@H](CSCCCO)[C@@H](O)[C@H]1O [2(G)(75)] |
| 37.5% | 18% | CCCCNCCSC[C@H]1O[C@@H](n2cnc3c(N)ncnc32)[C@H](O)[C@@H]1O [2(G)(136), (2R, 3R, 4S, 5S)-2-(6-amino-9H-purin-9-yl)-5-({[2-(butylamino)-ethyl]thio}methyl)-tetrahydrofuran-3,4-diol] |
| 39.5% | 29% | CCCc1cc(O)nc(SC[C@H]2O[C@@H](n3cnc4c(N)ncnc43)[C@H](O)[C@@H]2O)n1 [2(G)(162), (2R, 3R, 4S, 5S)-2-(6-amino-9H-purin-9-yl)-5-{[(4-hydroxy-6-propylpyrimidin-2-yl)-thio]methyl}tetrahydro-furan-3,4-diol] |
